Experimental data from PubChem BioAssay (NCI).
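Dose response: 5 concentrations. Exposure: 48 h. Format: 96-well plates. Endpoint: linear interpolation; highest concentration if not reached. The concentration for full growth arrest is given as TGI.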

Experiments:
Experiment in all cases: NCI anticancer screen, dose series, 48 h
TK-10 renal = system: TK-10 renal
NCI-H522 lung = system: NCI-H522 lung
SK-OV-3 ovarian = system: SK-OV-3 ovarian
MOLT-4 leukemia = system: MOLT-4 leukemia
MCF7 breast = system: MCF7 breast
RXF 393 renal = system: RXF 393 renal
HCT-116 colon = system: HCT-116 colon
NCI/ADR-RES ovarian = system: NCI/ADR-RES ovarian
IGROV1 ovarian = system: IGROV1 ovarian
A549 NSCLC = system: A549 NSCLC
UO-31 renal = system: UO-31 renal
SK-MEL-28 melanoma = system: SK-MEL-28 melanoma
T-47D breast = system: T-47D breast
SF-268 CNS = system: SF-268 CNS
SK-MEL-5 melanoma = system: SK-MEL-5 melanoma
ACHN renal = system: ACHN renal
OVCAR-4 ovarian = system: OVCAR-4 ovarian
OVCAR-5 ovarian = system: OVCAR-5 ovarian
OVCAR-3 ovarian = system: OVCAR-3 ovarian
SR leukemia = system: SR leukemia
CCRF-CEM leukemia = system: CCRF-CEM leukemia
NCI-H23 lung = system: NCI-H23 lung
SF-539 CNS = system: SF-539 CNS
MDA-MB-435 = system: MDA-MB-435
HCT-15 colon = system: HCT-15 colon
RPMI-8226 leukemia = system: RPMI-8226 leukemia
A498 renal = system: A498 renal
MALME-3M melanoma = system: MALME-3M melanoma
MDA-N = system: MDA-N
KM12 colon = system: KM12 colon
K-562 leukemia = system: K-562 leukemia
HOP-62 NSCLC = system: HOP-62 NSCLC
CAKI-1 renal = system: CAKI-1 renal
SN12C renal = system: SN12C renal
786-0 renal = system: 786-0 renal
DU-145 prostate = system: DU-145 prostate
NCI-H460 lung = system: NCI-H460 lung
COLO 205 colon = system: COLO 205 colon
HCC-2998 colon = system: HCC-2998 colon
NCI-H226 lung = system: NCI-H226 lung
MDA-MB-231 breast = system: MDA-MB-231 breast
UACC-62 melanoma = system: UACC-62 melanoma
HS 578T breast = system: HS 578T breast
PC-3 prostate = system: PC-3 prostate
BT-549 breast = system: BT-549 breast
HT29 colon = system: HT29 colon
U251 CNS = system: U251 CNS
SK-MEL-2 melanoma = system: SK-MEL-2 melanoma
SF-295 CNS = system: SF-295 CNS
OVCAR-8 ovarian = system: OVCAR-8 ovarian
SW-620 colon = system: SW-620 colon
M14 melanoma = system: M14 melanoma
UACC-257 melanoma = system: UACC-257 melanoma
HOP-92 NSCLC = system: HOP-92 NSCLC
EKVX NSCLC = system: EKVX NSCLC
SNB-75 CNS = system: SNB-75 CNS
SNB-19 CNS = system: SNB-19 CNS
HL-60(TB) leukemia = system: HL-60(TB) leukemia
LOX IMVI melanoma = system: LOX IMVI melanoma

COc1ccc2c(c1)c1c(n2CCN2CCOCC2)-c2cccc(OC)c2CC1
TGI (TK-10 renal): > 100 µM
TGI (NCI-H522 lung): 89 µM
TGI (SK-OV-3 ovarian): > 100 µM
TGI (MOLT-4 leukemia): 76.7 µM
TGI (MCF7 breast): 77.3 µM
TGI (RXF 393 renal): > 100 µM
TGI (HCT-116 colon): > 100 µM
TGI (NCI/ADR-RES ovarian): > 100 µM
TGI (IGROV1 ovarian): > 100 µM
TGI (A549 NSCLC): > 100 µM
TGI (UO-31 renal): > 100 µM
TGI (SK-MEL-28 melanoma): > 100 µM
TGI (T-47D breast): > 100 µM
TGI (SF-268 CNS): > 100 µM
TGI (SK-MEL-5 melanoma): > 100 µM
TGI (ACHN renal): > 100 µM
TGI (OVCAR-4 ovarian): > 100 µM
TGI (OVCAR-5 ovarian): > 100 µM
TGI (OVCAR-3 ovarian): > 100 µM
TGI (SR leukemia): 35.3 µM
TGI (CCRF-CEM leukemia): 56.8 µM
TGI (NCI-H23 lung): > 100 µM
TGI (SF-539 CNS): > 100 µM
TGI (MDA-MB-435): > 100 µM
TGI (HCT-15 colon): > 100 µM
TGI (RPMI-8226 leukemia): 68.1 µM
TGI (A498 renal): > 100 µM
TGI (MALME-3M melanoma): 66.3 µM
TGI (MDA-N): > 100 µM
TGI (KM12 colon): 53.1 µM
TGI (K-562 leukemia): > 100 µM
TGI (HOP-62 NSCLC): > 100 µM
TGI (CAKI-1 renal): > 100 µM
TGI (SN12C renal): > 100 µM
TGI (786-0 renal): > 100 µM
TGI (DU-145 prostate): > 100 µM
TGI (NCI-H460 lung): > 100 µM
TGI (COLO 205 colon): 28.5 µM
TGI (HCC-2998 colon): 63.4 µM
TGI (NCI-H226 lung): 52.9 µM
TGI (MDA-MB-231 breast): > 100 µM
TGI (UACC-62 melanoma): > 100 µM
TGI (HS 578T breast): > 100 µM
TGI (PC-3 prostate): > 100 µM
TGI (BT-549 breast): > 100 µM
TGI (HT29 colon): 32.2 µM
TGI (U251 CNS): > 100 µM
TGI (SK-MEL-2 melanoma): > 100 µM
TGI (SF-295 CNS): > 100 µM
TGI (OVCAR-8 ovarian): > 100 µM
TGI (SW-620 colon): > 100 µM
TGI (M14 melanoma): > 100 µM
TGI (UACC-257 melanoma): > 100 µM
TGI (HOP-92 NSCLC): > 100 µM

C=CC(COC(=O)C(C)(C)OC(C)=O)c1ccc(OC(=O)C(C)C)c(OC)c1 (configuration not stated)
TGI (TK-10 renal): 24.8 µM
TGI (NCI-H522 lung): 6.38 µM
TGI (SK-OV-3 ovarian): 30.8 µM
TGI (MOLT-4 leukemia): 20.6 µM
TGI (MCF7 breast): > 22.8 µM
TGI (RXF 393 renal): 19.7 µM
TGI (HCT-116 colon): > 48.9 µM
TGI (NCI/ADR-RES ovarian): > 84.9 µM
TGI (IGROV1 ovarian): 34.3 µM
TGI (A549 NSCLC): 47.5 µM
TGI (UO-31 renal): 21.1 µM
TGI (SK-MEL-28 melanoma): 35.5 µM
TGI (T-47D breast): > 37.2 µM
TGI (EKVX NSCLC): 34.1 µM
TGI (SF-268 CNS): > 43.9 µM
TGI (SK-MEL-5 melanoma): 27.8 µM
TGI (SNB-75 CNS): 22.2 µM
TGI (ACHN renal): 8.77 µM
TGI (OVCAR-4 ovarian): 22.4 µM
TGI (OVCAR-5 ovarian): 32.5 µM
TGI (OVCAR-3 ovarian): 28.9 µM
TGI (CCRF-CEM leukemia): > 22 µM
TGI (NCI-H23 lung): 39.3 µM
TGI (SF-539 CNS): 27.5 µM
TGI (MDA-MB-435): 27.8 µM
TGI (HCT-15 colon): 4.88 µM
TGI (RPMI-8226 leukemia): > 100 µM
TGI (A498 renal): 37.7 µM
TGI (MALME-3M melanoma): 8.78 µM
TGI (SNB-19 CNS): 23.2 µM
TGI (MDA-N): 14 µM
TGI (KM12 colon): 15.5 µM
TGI (K-562 leukemia): > 63.5 µM
TGI (HOP-62 NSCLC): 23.5 µM
TGI (CAKI-1 renal): 4.07 µM
TGI (SN12C renal): > 37 µM
TGI (786-0 renal): > 24.9 µM
TGI (DU-145 prostate): 25.9 µM
TGI (HL-60(TB) leukemia): > 49 µM
TGI (NCI-H460 lung): 7.78 µM
TGI (COLO 205 colon): 7.05 µM
TGI (HCC-2998 colon): 10.5 µM
TGI (NCI-H226 lung): 49.9 µM
TGI (MDA-MB-231 breast): 9.36 µM
TGI (UACC-62 melanoma): 27.8 µM
TGI (LOX IMVI melanoma): > 33.3 µM
TGI (HS 578T breast): 50.8 µM
TGI (PC-3 prostate): 27 µM
TGI (BT-549 breast): 22.5 µM
TGI (HT29 colon): > 36.1 µM
TGI (U251 CNS): 25.8 µM
TGI (SK-MEL-2 melanoma): 25.5 µM
TGI (SF-295 CNS): 19.9 µM
TGI (OVCAR-8 ovarian): > 89.3 µM
TGI (SW-620 colon): 52.8 µM
TGI (M14 melanoma): 21.8 µM
TGI (UACC-257 melanoma): 31.5 µM
TGI (HOP-92 NSCLC): 11.7 µM
